Laboratory results reported in ChEMBL document CHEMBL1201862, “PubChem BioAssay data set” (2004).
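Five compound concentrations were applied to cells in 96-well plates for 48 hours; endpoints were derived by simple linear interpolation of the resulting dose-response curve. GI50: concentration for 50% inhibition of growth.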 Active and inactive are the calls of the source. Cut-off read from the data, not from the text of the source: active = GI50 up to about 1.1 µM and inactive = higher.

How the values were obtained:
Test in all cases: DTP human tumour cell line panel, 48 h
ACHN = test system: ACHN
UACC-62 = test system: UACC-62
Malme-3M = test system: Malme-3M
T47D = test system: T47D
UACC-257 = test system: UACC-257
RPMI-8226 = test system: RPMI-8226
RXF 393 = test system: RXF 393
NCI-H226 = test system: NCI-H226
TK-10 = test system: TK-10
EKVX = test system: EKVX
SF-539 = test system: SF-539
MDA-N = test system: MDA-N
SR = test system: SR
PC-3 = test system: PC-3
HT-29 = test system: HT-29
SN12C = test system: SN12C
SK-MEL-5 = test system: SK-MEL-5
SK-MEL-2 = test system: SK-MEL-2
DU-145 = test system: DU-145
COLO 205 = test system: COLO 205

| Compound | GI50 (ACHN) | GI50 (UACC-62) | GI50 (Malme-3M) | GI50 (T47D) | GI50 (UACC-257) | GI50 (RPMI-8226) | GI50 (RXF 393) | GI50 (NCI-H226) | GI50 (TK-10) | GI50 (EKVX) | GI50 (SF-539) | GI50 (MDA-N) | GI50 (SR) | GI50 (PC-3) | GI50 (HT-29) | GI50 (SN12C) | GI50 (SK-MEL-5) | GI50 (SK-MEL-2) | GI50 (DU-145) | GI50 (COLO 205) |
| --- | --- | --- | --- | --- | --- | --- | --- | --- | --- | --- | --- | --- | --- | --- | --- | --- | --- | --- | --- | --- |
| CCOC(=O)CCC(NC(=O)c1ccc(Oc2nc3ccccc3nc2-c2ccccc2)cc1)C(=O)OCC (stereo not given) | 7.35 µM (inactive) | 32.7 µM (inactive) | 12.7 µM (inactive) | > 29.8 µM (inactive) | > 100 µM (inactive) | 37.6 µM (inactive) | 20.1 µM (inactive) | 13.2 µM (inactive) | 17.5 µM (inactive) | 57.9 µM (inactive) | 3.6 µM (inactive) | 45 µM (inactive) | > 29.8 µM (inactive) | 92.9 µM (inactive) | 2.48 µM (inactive) | 30.3 µM (inactive) | > 100 µM (inactive) | 31.5 µM (inactive) | 41 µM (inactive) | > 100 µM (inactive) |
| O=c1[nH][nH]c(=S)c(=O)[nH]1 | > 100 µM (inactive) | > 100 µM (inactive) | > 100 µM (inactive) | > 100 µM (inactive) | > 100 µM (inactive) | > 100 µM (inactive) | > 100 µM (inactive) | > 100 µM (inactive) | > 100 µM (inactive) | > 100 µM (inactive) | > 100 µM (inactive) | > 100 µM (inactive) | > 100 µM (inactive) | > 100 µM (inactive) | > 100 µM (inactive) | > 100 µM (inactive) | > 100 µM (inactive) | > 100 µM (inactive) | > 100 µM (inactive) | > 100 µM (inactive) |
| COc1cc(-c2[o+]c3cc(O)cc(O)c3cc2O)cc(O)c1O | > 100 µM (inactive) | > 100 µM (inactive) | > 100 µM (inactive) | > 100 µM (inactive) | > 100 µM (inactive) | > 100 µM (inactive) | > 100 µM (inactive) | > 100 µM (inactive) | > 100 µM (inactive) | 92.9 µM (inactive) | > 100 µM (inactive) | 34.8 µM (inactive) | 96.6 µM (inactive) | > 100 µM (inactive) | > 100 µM (inactive) | > 100 µM (inactive) | > 100 µM (inactive) | > 100 µM (inactive) | > 100 µM (inactive) | > 100 µM (inactive) |
| CO/N=C(\C)c1ccc(Nc2c3ccccc3nc3occc23)cc1 | 0.568 µM (active) | 0.38 µM (active) | 0.313 µM (active) | 0.522 µM (active) | 14.3 µM (inactive) | 0.429 µM (active) | 0.0813 µM (active) | 4.34 µM (inactive) | 1.21 µM (inactive) | 3.74 µM (inactive) | 0.383 µM (active) | 0.0855 µM (active) | 0.0373 µM (active) | 0.527 µM (active) | 0.284 µM (active) | 1.4 µM (inactive) | 0.323 µM (active) | 0.244 µM (active) | 1.07 µM (active) | 0.302 µM (active) |
| CCCCC(=O)OC[n+]1ccc(-c2c(COC(=O)NC(C)C)c(COC(=O)NC(C)C)c3n2CCC3)cc1 | 34.6 µM (inactive) | 30.9 µM (inactive) | > 100 µM (inactive) | > 100 µM (inactive) | > 100 µM (inactive) | > 68.7 µM (inactive) | 64 µM (inactive) | > 100 µM (inactive) | > 100 µM (inactive) | > 100 µM (inactive) | 40.4 µM (inactive) | > 100 µM (inactive) | 10 µM (inactive) | > 84.5 µM (inactive) | > 76 µM (inactive) | 40.3 µM (inactive) | > 100 µM (inactive) | > 100 µM (inactive) | > 70.5 µM (inactive) | > 80.9 µM (inactive) |
| CCOP1(=O)OCC2OC(n3cnc4c(N)ncnc43)C(O)C2O1.c1ccccc1 (stereo not given) | > 100 µM (inactive) | > 100 µM (inactive) | > 100 µM (inactive) | > 100 µM (inactive) | > 100 µM (inactive) | > 100 µM (inactive) | > 100 µM (inactive) | > 100 µM (inactive) | > 100 µM (inactive) | > 100 µM (inactive) | > 100 µM (inactive) | > 100 µM (inactive) | > 100 µM (inactive) | > 100 µM (inactive) | > 100 µM (inactive) | > 100 µM (inactive) | > 100 µM (inactive) | > 100 µM (inactive) | > 100 µM (inactive) | > 100 µM (inactive) |
| COC(OC)(c1ccccc1)C(I)I | 16.5 µM (inactive) | 13.4 µM (inactive) | 3.15 µM (inactive) | 19.2 µM (inactive) | 3.45 µM (inactive) | 2.09 µM (inactive) | 2.32 µM (inactive) | 20.8 µM (inactive) | 13.3 µM (inactive) | 12 µM (inactive) | 12.7 µM (inactive) | 7.96 µM (inactive) | 2.04 µM (inactive) | 14.2 µM (inactive) | 15 µM (inactive) | 20.1 µM (inactive) | 8.61 µM (inactive) | 13.8 µM (inactive) | 24.5 µM (inactive) | 8.69 µM (inactive) |
